In patent US6867207B2, “IL-5 inhibiting 6-azauracil derivatives” (Janssen Pharmaceutica N.V., priority 1997, dated 2005):
Marks after values point to notes of the source that are not given here.

What follows are compounds tested on IL-5 production (assay: In vitro inhibition of IL-5 production in human blood (phytohemagglutinin-stimulated whole blood, ELISA)). Conditions: test dose 1×10^−5 M (values marked *), 48 hours.
Type: cell-based
Description: In Vitro Inhibition of IL-5 Production in Human Blood
Human Whole Blood Stimulation
Peripheral blood from healthy male donors was drawn into heparinized syringes (12.5 U heparin/ml). Blood samples were three-fold diluted in RMPI 1640 medium (Life Technologies, Belgium) supplemented with 2 mM L-glutamine, 100 U/ml penicillin and 100 μg/ml streptomycin, and 300 μl fractions were distributed in 24-well multidisc plates. Blood samples were preincubated (60 minutes at 37° C.) in a humidified 6% CO2-atmosphere with 100 μl of drug solvent (final concentration 0.02% dimethylsulfoxide in RPMI 1640) or with 100 μl of an appropriate dose of test compound before being stimulated by the addition of 100 μl of phytohemagglutinin HA17 (Murex, UK) at a final concentration of 2 μg/ml. After 48 hours, cell-free supernatant fluids were collected by centrifugation and stored at −70° C. until tested for the presence of IL-5.
IL-5 measurements were conducted as described in Van Wauwe et al. (1996, Inflamm Res, 45, 357-363) on page 358 using ELISA.
Table 9 lists the percentage inhibition of IL-5 production (column “% inh”) at a test dose of 1×10^−6 M, or in case the percentage inhibition is marked with an “*” 1×10^−5 M, the compounds of the present invention.

With `Cn1cnnc1SC(c1ccc(Cl)cc1)c1ccc(-n2ncc(=O)[nH]c2=O)cc1Cl` (racemic) [Compound 53] the “% inh. (percentage inhibition of IL-5 production), marked with *” value was 53* %.

Same assay, conditions: test dose 1×10^−6 M, 48 hours

First: Cc1nc(-c2ccccc2)c(C(c2ccc(Cl)cc2)c2c(Cl)cc(-n3ncc(=O)[nH]c3=O)cc2Cl)s1 (racemic) [Compound 136]
Second: COCc1sc(C(c2ccc(Cl)cc2)c2c(Cl)cc(-n3ncc(=O)[nH]c3=O)cc2Cl)nc1-c1ccccc1 (racemic) [Comp 278]
The “% inh. (percentage inhibition of IL-5 production)” value of the first is lower: 93% for the first, 97% for the second.

First: Cc1nc(SC(c2ccc(Cl)cc2)c2ccc(-n3ncc(=O)[nH]c3=O)cc2Cl)nc(O)c1CC1CC1 (racemic) [Compound 338]
Second: Nc1cc(SC(c2ccc(Cl)cc2)c2ccc(-n3ncc(=O)[nH]c3=O)cc2Cl)nc(N)n1 (racemic) [Compound 68]
The “% inh. (percentage inhibition of IL-5 production)” value of the first is lower: −15% for the first, 60% for the second.

First: Cc1nc(-c2ccccc2Cl)sc1C(c1ccc(Cl)cc1)c1c(Cl)cc(-n2ncc(=O)[nH]c2=O)cc1Cl (racemic) [Compound 137]
Second: Nc1ccccc1-c1nnc(C(c2ccc(Cl)cc2)c2c(Cl)cc(-n3ncc(=O)[nH]c3=O)cc2Cl)o1 (racemic) [Compound 211]
The “% inh. (percentage inhibition of IL-5 production)” value of the first is lower: 64% for the first, 83% for the second.

Going from `O=c1cnn(-c2cc(Cl)c(C(c3ccc(Cl)cc3)c3cccnc3)c(Cl)c2)c(=O)[nH]1` (stereo not shown) [Comp 116] to `O=c1cnn(-c2cc(Cl)c(C(c3ccc(Cl)cc3)c3nnc(-c4ccccc4)o3)c(Cl)c2)c(=O)[nH]1` (stereo not shown) [Compound 189, (A)-2-[3,5-dichloro-4-[(4-chlorophenyl)(5-phenyl-1,3,4-oxadizol-2-yl)methyl]phenyl]-1,2,4-triazine-3,5(2H,4H)-dione], the “% inh. (percentage inhibition of IL-5 production)” value rises from 74% to 82%.

Going from `CCOC(=O)c1sc(C(c2ccc(Cl)cc2)c2c(Cl)cc(-n3ncc(=O)[nH]c3=O)cc2Cl)nc1-c1ccccc1F` (racemic) [Comp 285] to `Cc1sc(C(c2ccc(Cl)cc2)c2c(Cl)cc(-n3ncc(=O)[nH]c3=O)cc2Cl)nc1-c1c(F)cccc1F` (racemic) [Comp 268], the “% inh. (percentage inhibition of IL-5 production)” value falls from 89% to 83%.

First: Cc1sc(SC(c2ccc(Cl)c(C(F)(F)F)c2)c2c(Cl)cc(-n3ncc(=O)[nH]c3=O)cc2Cl)nc1-c1ccccc1 (racemic) [Compound 405]
Second: O=c1cnn(-c2cc(Cl)c(C(Sc3nc4cc(Cl)ccc4s3)c3ccc(Cl)c(C(F)(F)F)c3)c(Cl)c2)c(=O)[nH]1 (racemic) [Compound 402]
The “% inh. (percentage inhibition of IL-5 production)” value of the first is lower: 80% for the first, 90% for the second.

Going from `CN1CCC(c2nnc(C(c3ccc(Cl)cc3)c3c(Cl)cc(-n4ncc(=O)[nH]c4=O)cc3Cl)o2)CC1` (racemic) [Compound 195] to `CN1CCCC(c2nnc(C(c3ccc(Cl)cc3)c3c(Cl)cc(-n4ncc(=O)[nH]c4=O)cc3Cl)o2)C1` (mixture of isomers) [Compound 196], the “% inh. (percentage inhibition of IL-5 production)” value rises from 7% to 35%.

`O=c1cnn(-c2cc(Cl)c(C(c3ccc(Cl)cc3)c3nc(-c4ccccc4)c(CN4CCC(N5CCCCC5)CC4)s3)c(Cl)c2)c(=O)[nH]1` (racemic) [Comp 321] and `CNCc1sc(C(c2ccc(Cl)cc2)c2c(Cl)cc(-n3ncc(=O)[nH]c3=O)cc2Cl)nc1-c1ccccc1.Cl.O.O.O` (racemic) [Comp 296] are the same in “% inh. (percentage inhibition of IL-5 production)” value: 92% for the first, 92% for the second.

Going from `Cc1cc(-n2ncc(=O)[nH]c2=O)cc(C)c1C(c1ccc(Cl)c(Cl)c1)c1nc(-c2ccccc2)cs1` (racemic) [Comp 270] to `Cn1cc(-c2ccccc2)nc1C(c1ccc(Cl)cc1)c1c(Cl)cc(-n2ncc(=O)[nH]c2=O)cc1Cl` (stereo not shown) [Comp 425], the “% inh. (percentage inhibition of IL-5 production)” value falls from 86% to 70%.

Going from `O=c1cnn(-c2ccc(C(Nc3nccs3)c3ccc(Cl)cc3)c(Cl)c2)c(=O)[nH]1` (racemic) [Compound 44] to `Nc1ccnc(SC(c2ccc(Cl)cc2)c2ccc(-n3ncc(=O)[nH]c3=O)cc2Cl)n1` (racemic) [Compound 343], the “% inh. (percentage inhibition of IL-5 production)” value rises from 40% to 66%.

`O=c1cnn(-c2cc(Cl)c(C(Sc3ncccn3)c3ccc(Cl)cc3)c(Cl)c2)c(=O)[nH]1` (racemic) [Compound 340] and `O=c1cnn(-c2cc(Cl)c(C(Sc3nc(-c4ccccc4)no3)c3ccc(Cl)cc3)c(Cl)c2)c(=O)[nH]1` (racemic) [Compound 408] are the same in “% inh. (percentage inhibition of IL-5 production)” value: 88% for the first, 88% for the second.

First: CC(c1ccc(Cl)cc1)(c1nc(-c2ccccc2)c(-c2ccccc2)s1)c1c(Cl)cc(-n2ncc(=O)[nH]c2=O)cc1Cl (racemic) [Comp 18]
Second: O=c1cnn(-c2ccc(C(c3ccc(Cl)cc3)c3sc(-c4ccccc4Cl)nc3-c3ccccc3)c(Cl)c2)c(=O)[nH]1 (racemic) [Compound 150]
The “% inh. (percentage inhibition of IL-5 production)” value of the first is higher: 88% for the first, 48% for the second.

Going from `O=c1cnn(-c2cc(Cl)c(C(Sc3nc4cccnc4s3)c3ccc(Cl)c(C(F)(F)F)c3)c(Cl)c2)c(=O)[nH]1` (stereo not shown) [Compound 382] to `CCOc1ccc2nc(SC(c3ccc(Cl)c(C(F)(F)F)c3)c3c(Cl)cc(-n4ncc(=O)[nH]c4=O)cc3Cl)sc2c1` (stereo not shown) [Compound 394], the “% inh. (percentage inhibition of IL-5 production)” value falls from 95% to 93%.

Compared with `CCOC(=O)CSC(c1ccc(Cl)cc1)c1ccc(-n2ncc(=O)[nH]c2=O)cc1Cl` (racemic) [Compound 76], `Nc1ccc(SC(c2ccc(Cl)cc2)c2ccc(-n3ncc(=O)[nH]c3=O)cc2Cl)cc1` (racemic) [Compound 59] is higher in “% inh. (percentage inhibition of IL-5 production)” value: 2% for the first, 76% for the second.

Going from `COCCNC(=O)Cc1sc(C(c2ccc(Cl)cc2)c2c(Cl)cc(-n3ncc(=O)[nH]c3=O)cc2Cl)nc1-c1ccccc1` (racemic) [Comp 320] to `Cn1c(-c2ccccc2)nnc1C(c1ccc(Cl)cc1)c1c(Cl)cc(-n2ncc(=O)[nH]c2=O)cc1Cl.O` (stereo not shown) [Comp 428], the “% inh. (percentage inhibition of IL-5 production)” value falls from 94% to 66%.

Compared with `CS(=O)(=O)c1cccc(-c2nnc(C(c3ccc(Cl)cc3)c3c(Cl)cc(-n4ncc(=O)[nH]c4=O)cc3Cl)o2)c1` (racemic) [Compound 205], `O=c1cnn(-c2ccc(C(c3ccc(Cl)cc3)c3ncc(-c4ccccc4)o3)c(Cl)c2)c(=O)[nH]1` (racemic) [Comp 103] is lower in “% inh. (percentage inhibition of IL-5 production)” value: 80% for the first, 63% for the second.

With `O=c1cnn(-c2cc(Cl)c(C(Sc3nc4ccc([N+](=O)[O-])cc4s3)c3ccc(Cl)c(C(F)(F)F)c3)c(Cl)c2)c(=O)[nH]1` (stereo not shown) [Compound 388] the “% inh. (percentage inhibition of IL-5 production)” value was 90%.

Same assay, conditions: test dose 1×10^−6 M, 48 hours, read-out: % inh. (percentage inhibition of IL-5 production)

Compared with `NC(c1ccc(Cl)cc1)(c1nccs1)c1ccc(-n2ncc(=O)[nH]c2=O)cc1Cl` (racemic) [Compound 35, (±)-2-[3-chloro-4-[amino-(4-chlorophenyl)-2-thiazolylmethyl]phenyl]-1,2,4-triazine-3,5(2H,4H)-dione], `COC(c1ccc(Cl)cc1)(c1nccs1)c1ccc(-n2ncc(=O)[nH]c2=O)cc1Cl` (racemic) [Compound 37, (±)-2-[3-chloro-4-[(4-chlorophenyl)-methoxy(2-thiazolyl)methyl]phenyl]-1,2,4-triazine-3,5(2H,4H)-dione] is higher in inhibition at 1 µM: 56% for the first, 61% for the second.

With `O=c1cnn(-c2ccc(C(c3ccc(Cl)cc3)c3cccnc3)c(Cl)c2)c(=O)[nH]1` (racemic) [Compound 124, (±)-2-[3-chloro-4-[(4-chlorophenyl)-3-pyridinylmethyl]phenyl]-1,2,4-triazine-3,5(2H,4H)-dione] the inhibition at 1 µM was 42%.
